Key:
[1] = sfLogD
[2] = Clearance by human liver microsomes (HLM) stability assay; format: in vitro ADME; settings: pH 7.4; pooled human liver microsomes, 1 µM test compound, 37 °C
Method: (§1) HLM Assay: The high throughput human microsomal stability assay was performed in a 384 -well format.
All liquid handling and incubation were conducted with a Biomek FX, equipped with one 3 position Mecour heat exchangers. Pooled human liver microsomes of 50 don ors (Lot: HLM-103) were purchased from BioIVT. Each incubation contained test compound (1 µM), human liver microsomes ([…] CYP protein equivalent to 0.806 mg/mL protein concentration), NADPH (1.3 mM), MgCl 2 (3.3 mM) and potassium phosphate buffer (100 mM at pH 7.4). The final reaction volume was […] containing 0.01% DMSO. The incubations were conducted at 37 °C at various time points (1, 4, 7, 12, 20, 25, 45, 60 min). Cold acetonitrile with mass spectrometry (MS) internal standard (IS, CP-628374) was then added to quench the reaction.
The plates were centrifuged at 3000 rpm for 10 min at 4 °C (Sorvall RC 3C Plus, Thermo Scienti fic, Waltham, MA). The water layer was transferred to the 384 -well plate, sealed and subsequently analy sed using LCeMS/MS. Control plates were prepared in the same manner without adding the NADPH cofactor to monitor any non-CYP catalysed decline. Propranolol (2D6, 1A2 and 2C19 substrate), quinidine (3A4), diclofenac (2C9), verapamil (3A4, 1A2, 2C), amitriptyline (2D6, 2C19) and naloxone (UGT2B7) were used as positive controls on each plate to monitor the activities of the various CYPs in the assay. […]

[3] = elogD, automated reversed phase-HPLC logD (pH 7.4); format: physicochemical; settings: Supelcosil LC-ABZ column
Method: (§2) elogD: An automated reversed phase-HPLC method developed by Lombardo et al. was used for logD (pH 7.4) measurements. All the chromatographic runs were performed on a HP -1100 HPLC ChemStation at the ambient temperature. The HPLC columns used were Supelcosil LC-ABZ, 5 µm, 4.6 mm × 50 mm. A diode array detector was used to monitor signals at 210, 225, 245, and 310 nm. The mobile phase consisted of 15−75% of A and 85−25% of B.
(§3) Mobile phase A: methanol with addition of 0.25% 1-octanol.
(§4) Mobile phase B: 20 mM of MOPS (morpholine−propane−sulfonic acid) buffer prepared in octanol saturated water and 0.25% of n-decylamine.
(§5) Samples were prepared in 1:1 mixture of methanol/water at 100 μg/mL concentration.
The retention of each compound is obtained at three different concentrations of methanol in the mobile phase and extrapolated to 0% methanol (100% water). […]

[4] = RRCK passive permeability assay; format: in vitro ADME, canine; settings: dog, MDCK; read-out: RRCK cell permeability
Method: Aqueous buffer preparation: pH 3: 50 µL of 1N hydrochloric acid was added to 500 mL of deionized water.
The solution was titrated with 1N hydrochloric acid to pH 3, and back titrated with 1N sodium hydroxide. pH 7.4: 100 mM sodium phosphate buffer is made by adding 56.4 g of dibasic sodium phosphate and 10.3 g of monobasic sodium phosphate to 4 L of deionized water. 250 µL of 100 mM sodium phosphate buffer was diluted with 250 µL of deionized water. The solution was titrated with 1N hydrochloric acid to pH 7.4, and back titrated with 1N sodium hydroxide. pH 10: Fisher Scientific pH 10 buffer (SB116-500) containing potassium hydroxide, potassium carbonate, and potassium borate. pH 12.8: 30 mL of 1N NaOH was added to 200 mL of deionized water. The solution was titrated with 1N sodium hydroxide to pH 12.8, and back titrated with 1N hydrochloric acid.
RRCK: Passive permeability assay were carried out using low‐efflux MDCKII cells (Madin–Darby canine kidney cell line) also called Ralph Russ Canine Kidney cell (RRCK).11

[5] = Chemical (pH) stability assay; format: physicochemical; settings: low pH (1.2), 37 °C, up to 4 h
Method: as §2, §3, §4, §5
The retention of each compound is obtained at three different concentrations of methanol in the mobile phase and extrapolated to 0% methanol (100% water).
as §1
All liquid handling and incubation were conducted with a Biomek FX, equipped with one 3 position Mecour heat exchangers. Pooled human liver microsomes of 50 don ors (Lot: HLM-103) were purchased from BioIVT. […]
Assay ready plated: Plate containing 6µL at 30 mM of test compounds in 96 deep well plate (volume = 600 µL). […]

| SMILES | melting point [°C] | logD [1] | chromatographic logD [3] | further results |
| --- | --- | --- | --- | --- |
| Cc1cc(C(=O)c2cn(C)c3ccccc23)ccc1OC1CNC1 [1b] | 70 to 75 | 1.07 | – | – |
| COc1ccc(C(=O)c2ccc(OC3CNC3)c(C)c2)cc1 [C00008] | – | – | – | microsomal CLint at 1 h, 1 µM [2]: 75 µL/min/mg |
| COc1ccc(C2(c3ccc(OC4CNC4)c(C)c3)COC2)cc1 [7a] | 108 to 115 | 1.06 | 1.43 | – |
| COc1ccc(C2(c3ccc(OC4CNC4)c(C)c3)COC2)cc1 [C00007] | – | – | – | microsomal CLint at 1 h, 1 µM [2]: 7.5 µL/min/mg |
| Cc1cc(Cc2cn(C)c3ccccc23)ccc1O [5c] | 77 to 79 | 2.79 | 4.78 | Papp [4]: 0.1 ×10⁻⁶ cm/s |
| Cc1cc(C(C)(C)c2cn(C)c3ccccc23)ccc1OC1CNC1 [1d] | 75 to 80 | 2.59 | 2.9 | – |
| COc1ccc(C2(c3ccc(N4CCOCC4)c(C)c3)COC2)cc1 [8a] | 133 to 135 | 3.47 | 3.68 | – |
| Cc1cc(C(=O)c2cn(C)c3ccccc23)ccc1Oc1ccccn1 [3b] | 123 to 124 | 1.92 | 3.99 | – |
| COc1ccc(C(=O)c2ccc(N3CCOCC3)c(C)c2)cc1 [8b] | – | 3.06 | 3.9 | – |
| Cc1cc(C2(c3cn(C)c4ccccc34)COC2)ccc1OC1CNC1 [1a] | 100 to 103 | 1.37 | 2.13 | – |
| COc1ccc(C2(c3ccc(O)c(C)c3)COC2)cc1 [C00005] | – | – | – | microsomal CLint at 1 h, 1 µM [2]: 80 µL/min/mg |
| COc1ccc(C(=O)c2ccc(O)c(C)c2)cc1 [C00006] | – | – | – | microsomal CLint at 1 h, 1 µM [2]: 77.4 µL/min/mg |
| Cc1cc(C(=O)c2cn(C)c3ccccc23)ccc1OC1CNC1 [C00004] | – | – | – | microsomal CLint at 1 µM [2]: < 7 µL/min/mg |
| Cc1cc(C(=O)c2cn(C)c3ccccc23)ccc1-c1cnc(C(F)(F)F)nc1 [4b] | 185 to 187 | 4.21 | 4.3 | – |
| Cc1cc(Cc2cn(C)c3ccccc23)ccc1OC1CNC1 [1c] | 80 to 82 | 1.68 | 3.1 | – |
| Cc1cc(C(=O)c2cn(C)c3ccccc23)ccc1O [C00002] | – | – | – | microsomal CLint at 1 h, 1 µM [2]: 18 µL/min/mg |
| COc1ccc(C2(c3ccc(O)c(C)c3)COC2)cc1 [10a] | 140 to 143 | 3.22 | 3.07 | – |

| SMILES | melting point [°C] | logD [1] | chromatographic logD [3] | further results |
| --- | --- | --- | --- | --- |
| COc1ccc(C2(c3ccc(-c4c[nH]nc4C(F)(F)F)c(C)c3)COC2)cc1 [9a] | 175 to 177 | 4.62 | 4.5 | – |
| COc1ccc(C(=O)c2ccc(-c3c[nH]nc3C(F)(F)F)c(C)c2)cc1 [9b] | 207 to 208 | 4.74 | 4.8 | – |
| Cc1cc(C2(c3cn(C)c4ccccc34)CCC2)ccc1O [5e] | 120 to 121 | 4.4 | 5.4 | Papp [4]: 0.1 ×10⁻⁶ cm/s |
| Cc1cc(C2(c3cn(C)c4ccccc34)COC2)ccc1-c1cnc(C(F)(F)F)nc1 [4a] | 181 to 182 | – | 5.1 | – |
| Cc1cc(C2(c3cn(C)c4ccccc34)COC2)ccc1O [C00001] | – | – | – | microsomal CLint at 1 h, 1 µM [2]: 22.9 µL/min/mg |
| Cn1cc(C2(c3ccc(O)cc3)COC2)c2ccccc21 [6a] | 207 to 209 | 3.27 | 3.28 | – |
| Cc1cc(C2(c3cn(C)c4ccccc34)CCC2)ccc1OC1CNC1 [1e] | – | 2.81 | 3.2 | – |
| Cn1cc(C2(c3ccc(OC4CNC4)cc3)COC2)c2ccccc21 [2a] | – | 0.99 | 1.7 | – |
| COc1ccc(C(=O)c2ccc(O)c(C)c2)cc1 [10b] | 186 to 187 | 3.49 | – | – |
| Cc1cc(C2(c3cn(C)c4ccccc34)COC2)ccc1-c1cnc(C(F)(F)F)nc1 [C00009] | – | – | – | microsomal CLint at 1 h, 1 µM [2]: 8.5 µL/min/mg |
| Cc1cc(C(=O)c2cn(C)c3ccccc23)ccc1-c1cnc(C(F)(F)F)nc1 [C00010] | – | – | – | microsomal CLint at 1 µM [2]: < 7 µL/min/mg |
| COc1ccc(C(=O)c2ccc(OC3CNC3)c(C)c2)cc1 [7b] | 99 to 103 | 1.21 | 1.74 | – |
| Cc1cc(C2(c3cn(C)c4ccccc34)COC2)ccc1Oc1ccccn1 [3a] | 175 to 177 | 4.36 | 4.6 | – |
| Cc1cc(C(C)(C)c2cn(C)c3ccccc23)ccc1O [5d] | 110 to 112 | 3.72 | 5.05 | – |
| Cc1cc(C2(c3cn(C)c4ccccc34)COC2)ccc1O [5a] | 233 to 235 | 3.63 | 3.73 | chemical stability (% compound remaining), in words [5]: poorer stability at low pH |
| Cc1cc(C(=O)c2cn(C)c3ccccc23)ccc1O [5b] | 239 to 241 | 3.33 | 3.3 | chemical stability (% compound remaining), in words [5]: poorer stability at low pH |
| Cc1cc(C2(c3cn(C)c4ccccc34)COC2)ccc1OC1CNC1 [C00003] | – | – | – | microsomal CLint at 1 µM [2]: < 7 µL/min/mg |

From PMC8672821, “Investigating 3,3-diaryloxetanes as potential bioisosteres through matched molecular pair analysis” (RSC Medicinal Chemistry, 2021)
